Each structure is given as a SMILES string.

Chain of TRKA (P04629 441-796): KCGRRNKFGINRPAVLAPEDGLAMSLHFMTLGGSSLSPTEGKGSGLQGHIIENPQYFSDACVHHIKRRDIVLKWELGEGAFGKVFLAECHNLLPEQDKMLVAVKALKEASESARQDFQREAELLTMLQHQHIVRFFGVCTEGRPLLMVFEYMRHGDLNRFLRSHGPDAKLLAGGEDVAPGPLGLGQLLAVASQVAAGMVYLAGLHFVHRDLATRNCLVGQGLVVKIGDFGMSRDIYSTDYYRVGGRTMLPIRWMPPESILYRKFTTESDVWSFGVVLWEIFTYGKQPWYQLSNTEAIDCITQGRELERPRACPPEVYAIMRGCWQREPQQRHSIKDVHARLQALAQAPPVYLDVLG

The test addresses TRKA (Homo sapiens (Human), UniProt P04629). The test can be described thus: Isolated TRK enzyme assay (HTRF KinEASE-TK), TRKA. The class given is biochemical. As to conditions: read-out: Trka enzyme (IC50). (In general: In TR-FRET formats the signal depends on donor and acceptor labels being close together.)
On to `CC(C(=O)N(C)C)n1cc(C(=O)c2cncc(NC(=O)Cc3ccc(Cl)cc3)c2)c2cncnc21` (racemic) [Example 230, 2-{5-[(5-{[(4-Chlorophenyl)acetyl]amino}pyridin-3-yl)carbonyl]-7H-pyrrolo[2,3-d]pyrimidin-7-yl}-N,N-dimethylpropanamide], for which the IC50 (in general, the midpoint of a concentration-inhibition curve) is 63.7 nM.

For the molecule `CC(CO)n1cc(C(=O)c2cncc(NC(=O)Cc3ccc4cccnc4c3)c2)c2cnc(N)nc21` (single isomer, unassigned) [Example 211, N-(5-{[2-amino-7-(2-hydroxy-1-methylethyl)-7H-pyrrolo[2,3-d]pyrimidin-5-yl]carbonyl}pyridin-3-yl)-2-quinolin-7-ylacetamide], the IC50 is 34.9 nM. `CC(CO)n1cc(C(=O)c2cncc(NC(=O)Cc3ccc(C#N)cc3)c2)c2cnc(N)nc21` (single isomer, unassigned) [Example 212, N-(5-{[2-amino-7-(2-hydroxy-1-methylethyl)-7H-pyrrolo[2,3-d]pyrimidin-5-yl]carbonyl}pyridin-3-yl)-2-(4-cyanophenyl)acetamide]: the IC50 came out at 59 nM.

As to `CC(CO)n1cc(C(=O)c2cncc(NC(=O)Cc3cccc(C(F)(F)F)c3)c2)c2cnc(N)nc21` (single isomer, unassigned) [Example 213, N-(5-{[2-amino-7-(2-hydroxy-1-methylethyl)-7H-pyrrolo[2,3-d]pyrimidin-5-yl]carbonyl}pyridin-3-yl)-2-[3-(trifluoromethyl)phenyl]acetamide], the IC50 amounted to 3.03 nM. To `CC(CO)n1cc(C(=O)c2cncc(NC(=O)Cc3ccc(C#N)cc3)c2)c2cnc(N)nc21` (single isomer, unassigned) [Example 214, N-(5-{[2-amino-7-(2-hydroxy-1-methylethyl)-7H-pyrrolo[2,3-d]pyrimidin-5-yl]carbonyl}pyridin-3-yl)-2-(4-cyanophenyl)acetamide] belongs 65.9 nM; to `CC(CO)n1cc(C(=O)c2cncc(NC(=O)Cc3cccc(C(F)(F)F)c3)c2)c2cnc(N)nc21` (single isomer, unassigned) [Example 215, N-(5-{[2-amino-7-(2-hydroxy-1-methylethyl)-7H-pyrrolo[2,3-d]pyrimidin-5-yl]carbonyl}pyridin-3-yl)-2-[3-(trifluoromethyl)phenyl]acetamide], 4.4 nM; to `CC(CO)n1cc(C(=O)c2cncc(NC(=O)Cc3ccc4cccnc4c3)c2)c2cnc(N)nc21` (single isomer, unassigned) [Example 216, N-(5-{[2-amino-7-(2-hydroxy-1-methylethyl)-7H-pyrrolo[2,3-d]pyrimidin-5-yl]carbonyl}pyridin-3-yl)-2-quinolin-7-ylacetamide], 31.6 nM. Take `CC(C)n1cc(C(=O)c2cncc(NC(=O)Cc3ccc(F)cc3)c2)c2cncnc21` [Example 65, 2-(4-fluorophenyl)-N-{5-[(7-isopropyl-7H-pyrrolo[2,3-d]pyrimidin-5-yl)carbonyl]pyridin-3-yl}acetamide]: the IC50 stood at 55.6 nM. For `CC(C)n1cc(C(=O)c2cncc(NC(=O)Cc3cccc(C(F)(F)F)c3)c2)c2cncnc21` [Example 66, N-{5-[(7-isopropyl-7H-pyrrolo[2,3-d]pyrimidin-5-yl)carbonyl]pyridin-3-yl}-2-[3-(trifluoromethyl)phenyl]acetamide], the IC50 worked out at 3.55 nM. Take `CC(C)n1cc(C(=O)c2cncc(NC(=O)Cc3ccc(C(F)(F)F)cc3)c2)c2cncnc21` [Example 67, N-{5-[(7-isopropyl-7H-pyrrolo[2,3-d]pyrimidin-5-yl)carbonyl]pyridin-3-yl}-2-[4-(trifluoromethyl)phenyl]acetamide]: the IC50 stood at 4.15 nM.

For `CC(C)n1cc(C(=O)c2cncc(NC(=O)Cc3ccc(Cl)c(Cl)c3)c2)c2cncnc21` [Example 68, 2-(3,4-dichlorophenyl)-N-{5-[(7-isopropyl-7H-pyrrolo[2,3-d]pyrimidin-5-yl)carbonyl]pyridin-3-yl}acetamide], the IC50 was 12.1 nM. Turning to `CC(C)n1cc(C(=O)c2cncc(NC(=O)Cc3ccc(Cl)cc3)c2)c2cncnc21` [Example 69, 2-(4-chlorophenyl)-N-{5-[(7-isopropyl-7H-pyrrolo[2,3-d]pyrimidin-5-yl)carbonyl]pyridin-3-yl}acetamide], the IC50 came out at 10.9 nM. With `CC(C)n1cc(C(=O)c2cncc(NC(=O)Cc3ccccc3OC3CC3)c2)c2cncnc21` [Example 70, 2-[2-(cyclopropyloxy)phenyl]-N-{5-[(7-isopropyl-7H-pyrrolo[2,3-d]pyrimidin-5-yl)carbonyl]pyridin-3-yl}acetamide] the figure was 22.8 nM.

`CC(C)n1cc(C(=O)c2cncc(NC(=O)Cc3ccc(C#N)c(C(F)(F)F)c3)c2)c2cncnc21` [Example 72, 2-[4-cyano-3-(trifluoromethyl)phenyl]-N-{5-[(7-isopropyl-7H-pyrrolo[2,3-d]pyrimidin-5-yl)carbonyl]pyridin-3-yl}acetamide]: the IC50 worked out at 63.3 nM.

As for `CC(C)n1cc(C(=O)c2cncc(NC(=O)Cc3ccc(OC4CC4)cc3)c2)c2cncnc21` [Example 73, 2-[4-(cyclopropyloxy)phenyl]-N-{5-[(7-isopropyl-7H-pyrrolo[2,3-d]pyrimidin-5-yl)carbonyl]pyridin-3-yl}acetamide], the IC50 turned out to be 283 nM. Take `CC(C)n1cc(C(=O)c2cncc(NC(=O)Cc3cccc(OC4CC4)c3)c2)c2cncnc21` [Example 74, 2-[3-(cyclopropyloxy)phenyl]-N-{5-[(7-isopropyl-7H-pyrrolo[2,3-d]pyrimidin-5-yl)carbonyl]pyridin-3-yl}acetamide]: the IC50 came to 1210 nM. Regarding `CC(C)n1cc(C(=O)c2cncc(NC(=O)Cc3cccc(CO)c3)c2)c2cncnc21` [Example 75, 2-[3-(hydroxymethyl)phenyl]-N-{5-[(7-isopropyl-7H-pyrrolo[2,3-d]pyrimidin-5-yl)carbonyl]pyridin-3-yl}acetamide], the IC50 came out at 567 nM. To `CC(C)n1cc(C(=O)c2cncc(NC(=O)Cc3ccc(C#N)c(F)c3)c2)c2cncnc21` [Example 76, 2-(4-cyano-3-fluorophenyl)-N-{5-[(7-isopropyl-7H-pyrrolo[2,3-d]pyrimidin-5-yl)carbonyl]pyridin-3-yl}acetamide] belongs 173 nM; to `COc1cc(CC(=O)Nc2cncc(C(=O)c3cn(C(C)C)c4ncncc34)c2)ccc1C#N` [Example 77, 2-(4-cyano-3-methoxyphenyl)-N-{5-[(7-isopropyl-7H-pyrrolo[2,3-d]pyrimidin-5-yl)carbonyl]pyridin-3-yl}acetamide], 64.3 nM.

As for `CC(C)n1cc(C(=O)c2cncc(NC(=O)CN3Cc4ccc(F)cc4C3=O)c2)c2cncnc21` [Example 78, 2-(6-fluoro-1-oxo-1,3-dihydro-2H-isoindol-2-yl)-N-{5-[(7-isopropyl-7H-pyrrolo[2,3-d]pyrimidin-5-yl)carbonyl]pyridin-3-yl}acetamide], the IC50 is 203 nM. Take `CC(C)n1cc(C(=O)c2cncc(NC(=O)Cn3ccc(-c4ccccn4)n3)c2)c2cncnc21` [Example 79, N-{5-[(7-isopropyl-7H-pyrrolo[2,3-d]pyrimidin-5-yl)carbonyl]pyridin-3-yl}-2-(3-pyridin-2-yl-1H-pyrazol-1-yl)acetamide]: the half-maximal inhibitory concentration (IC50) is 1580 nM. Consider `CC(C)n1cc(C(=O)c2cncc(NC(=O)Cc3ccc4[nH]cnc4c3)c2)c2cncnc21` [Example 80, 2-(1H-benzimidazol-5-yl)-N-{5-[(7-isopropyl-7H-pyrrolo[2,3-d]pyrimidin-5-yl)carbonyl]pyridin-3-yl}acetamide], for which the IC50 came out at 392 nM. On to `CC(C)n1cc(C(=O)c2cncc(NC(=O)Cc3ccc4nccnc4c3)c2)c2cncnc21` [Example 81, N-{5-[(7-isopropyl-7H-pyrrolo[2,3-d]pyrimidin-5-yl)carbonyl]pyridin-3-yl}-2-quinoxalin-6-ylacetamide], for which the IC50 came to 197 nM. For the molecule `CC(C)n1cc(C(=O)c2cncc(NC(=O)Cc3cnc4cccnc4c3)c2)c2cncnc21` [Example 82, N-{5-[(7-isopropyl-7H-pyrrolo[2,3-d]pyrimidin-5-yl)carbonyl]pyridin-3-yl}-2-(1,5-naphthyridin-3-yl)acetamide], the IC50 is 908 nM. Turning to `CC(C)n1cc(C(=O)c2cncc(NC(=O)Cc3ccc4onc(N)c4c3)c2)c2cncnc21` [Example 83, 2-(3-amino-1,2-benzisoxazol-5-yl)-N-{5-[(7-isopropyl-7H-pyrrolo[2,3-d]pyrimidin-5-yl)carbonyl]pyridin-3-yl}acetamide], the IC50 was 355 nM. With `CC(C)n1cc(C(=O)c2cncc(NC(=O)Cc3ccc4[nH]c(C(F)(F)F)nc4c3)c2)c2cncnc21` [Example 84, N-{5-[(7-isopropyl-7H-pyrrolo[2,3-d]pyrimidin-5-yl)carbonyl]pyridin-3-yl}-2-[2-(trifluoromethyl)-1H-benzimidazol-5-yl]acetamide] the figure was 2860 nM; with `CC(C)n1cc(C(=O)c2cncc(NC(=O)Cc3ccn4ccnc4c3)c2)c2cncnc21` [Example 85, 2-imidazo[1,2-a]pyridin-7-yl-N-{5-[(7-isopropyl-7H-pyrrolo[2,3-d]pyrimidin-5-yl)carbonyl]pyridin-3-yl}acetamide], 70.8 nM. As to `CC(C)n1cc(C(=O)c2cncc(NC(=O)Cn3ncc4ncccc43)c2)c2cncnc21` [Example 86, N-{5-[(7-isopropyl-7H-pyrrolo[2,3-d]pyrimidin-5-yl)carbonyl]pyridin-3-yl}-2-(1H-pyrazolo[4,3-b]pyridin-1-yl)acetamide], the IC50 is 95.5 nM. In the case of `CC(C)n1cc(C(=O)c2cncc(NC(=O)Cc3cccc(S(C)(=O)=O)c3)c2)c2cncnc21` [Example 87, N-{5-[(7-isopropyl-7H-pyrrolo[2,3-d]pyrimidin-5-yl)carbonyl]pyridin-3-yl}-2-[3-(methylsulfonyl)phenyl]acetamide], the IC50 worked out at 63.2 nM.

With `CC(C)n1cc(C(=O)c2cncc(NC(=O)Cn3cc(C4CC4)nn3)c2)c2cncnc21` [Example 88, 2-(4-cyclopropyl-1H-1,2,3-triazol-1-yl)-N-{5-[(7-isopropyl-7H-pyrrolo[2,3-d]pyrimidin-5-yl)carbonyl]pyridin-3-yl}acetamide], the IC50 was found to be 56.6 nM. In the case of `CC(C)n1cc(C(=O)c2cncc(NC(=O)Cc3ccc4ocnc4c3)c2)c2cncnc21` [Example 89, 2-(1,3-benzoxazol-5-yl)-N-{5-[(7-isopropyl-7H-pyrrolo[2,3-d]pyrimidin-5-yl)carbonyl]pyridin-3-yl}acetamide], the IC50 was determined as 21.7 nM.

Values taken from US8846698B2, “Pyrrolo[2,3-d]pyrimidine tropomysin-related kinase inhibitors” (Pfizer Limited, priority 2011, dated 2014).
